Data set [1] deals with mice. The data set is described as follows: Acute toxicity with intravenous administration, mice. To be noted: 14 days. The class given is in vivo, ICR strain mice. As to the method:
(§1) In this Example, the acute toxicity with intravenous administration of the non-radioactive labeling composition to rats or mice was evaluated. Namely, sterilized, pyrogen-free and oxygen-free water (1.0 ml) was added to a vial containing "FDSn-RBC" to make a stannous chloride solution (20 μmol/ml, […]). The resultant solution was intravenously administered to male and female ICR strain mice and S.D. strain rats. After 14 days, the accumulative death percentage was determined, and the lethal dose 50 (LD50) was calculated by the Litchfield-Wilcoxon's method.

In data set [2] the test system is rats. The data set is described as follows: Acute toxicity with intravenous administration, rats. Particulars: 14 days. The class given is in vivo, S.D. strain rats. On the procedure:
as §1
The dose of the non-radioactive labeling composition to human beings may be 9.48 μg/kg (with the assumption that a total amount of one vial of FDSn-COL is administered to a person of 60 kilograms in bodyweight) as stannous chloride at the maximum in case of using for preparation of ^99m Tc-labeled tin colloid, and 31.95 μg/kg (corresponding to 20 μg/kg of stannous ion) in case of using for labeling of red blood cells in a human body. When these doses are compared with the LD50 values of female rats which are considered to be the most sensitive among the tested animals, said dose is about 1/1790 that of the LD50 value in case of preparation of ^99m Tc-labeled tin colloid and about 1/530 that of the LD50 value in case of labeling of red blood cells in a human being.

As to `[Cl][Sn][Cl]` [stannous chloride], the LD50 (commonly the dose expected to kill half of the subjects tested) in data set [1] (female mice) turned out to be 28 ± 3 mg/kg; in data set [1] (male mice), 33 ± 3 mg/kg; in data set [2] (female rats), 17 ± 2 mg/kg; in data set [2] (male rats) it was 18 ± 3 mg/kg.
